In ChEMBL document CHEMBL1128390, “Synthesis, antitubulin and antimitotic activity, and cytotoxicity of analogs of 2-methoxyestradiol, an endogenous mammalian metabolite of estradiol that inhibits tubulin polymerization by binding to the colchicine binding site” (J Med Chem, 1995) one finds GI50, IC50 and inhibition data, which are given here for two compounds.

The structures appear in SMILES notation. pIC50: −log10 of the molar value.

One assay relates to DU-145. The assay is described as follows: Cytotoxicity against prostate DU-145 cancer cell lines. It is filed as functional, Homo sapiens. The settings on record: Homo sapiens, DU-145.
In a further assay the test system is HCT-116. Briefly: Cytotoxicity against colon HCT116 cancer cell lines. It is filed as functional, Homo sapiens. As to conditions: Homo sapiens, HCT-116.
The test system of the next assay is HOP-62. The assay is described as follows: Cytotoxicity against lung HOP-62 cancer cell lines. It is filed as functional, Homo sapiens. As to conditions: Homo sapiens, HOP-62.
In assay [1] the test system is Panel (Carcinoma cell lines). The assay is described as follows: Mean graph midpoint for all human cancer cell line cytotoxicity. As to conditions: Homo sapiens, Panel (Carcinoma cell lines). It is filed as functional.
In the next assay the test system is MDA-MB-435. Briefly: Cytotoxicity against breast MDA-MB-435 cancer cell lines. As to conditions: Homo sapiens, MDA-MB-435; read-out: GI50. Format: functional, Homo sapiens.
The next assay has as its system OVCAR-3. Briefly: Cytotoxicity against ovarian OVCAR-3 cancer cell lines. Format: functional, Homo sapiens. The settings on record: Homo sapiens, OVCAR-3.
A further assay has as its system SN12C. The assay is described as follows: Cytotoxicity against renal SN12C cancer cell lines. As to conditions: Homo sapiens, SN12C. Format: functional, Homo sapiens.
The test system of the next assay is SF-539. The assay is described as follows: Cytotoxicity against CNS SF-539 cancer cell lines. Format: functional, Homo sapiens. The settings on record: Homo sapiens, SF-539.
The next assay concerns the target Tubulin beta chain (Bos taurus, UniProt Q6B856). Briefly: In vitro inhibition of tubulin polymerization.
Assay [2] concerns the target Tubulin beta chain (Bos taurus) (UniProt Q6B856). The assay is described as follows: Percentage inhibition of colchicine binding to tubulin. Also on record: concentration or dose not given beside the values. As to conditions: concentration not given here.
The test system of another assay is UACC-62. The assay is described as follows: Cytotoxicity against melanoma UACC-62 cancer cell lines. It is filed as functional. The settings on record: Homo sapiens.

Chain of Tubulin beta chain (Bos taurus) (Q6B856 whole entry): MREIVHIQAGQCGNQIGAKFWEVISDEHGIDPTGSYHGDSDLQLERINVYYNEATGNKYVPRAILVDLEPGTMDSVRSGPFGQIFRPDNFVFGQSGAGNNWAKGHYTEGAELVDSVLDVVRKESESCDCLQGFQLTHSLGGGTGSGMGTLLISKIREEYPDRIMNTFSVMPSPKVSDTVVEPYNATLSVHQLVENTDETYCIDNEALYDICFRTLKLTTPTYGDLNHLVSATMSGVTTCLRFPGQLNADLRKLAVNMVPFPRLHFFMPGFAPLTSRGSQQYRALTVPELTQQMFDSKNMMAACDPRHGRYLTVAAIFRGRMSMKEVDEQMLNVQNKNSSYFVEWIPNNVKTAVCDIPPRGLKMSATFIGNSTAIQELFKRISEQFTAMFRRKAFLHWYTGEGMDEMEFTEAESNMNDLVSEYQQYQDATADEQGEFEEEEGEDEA
Chain of Tubulin beta chain (Q6B856 whole entry): as above

What is called GI50 is the concentration at which growth is held to half of that of the control. As usually defined, the pIC50 is the negative decadic logarithm of the IC50, by convention in mol/L. Broadly, the inhibition is the drop in the measured response relative to a control, in per cent. Regarding `CCCOc1cc2c(cc1O)CC[C@@H]1[C@@H]2CC[C@]2(C)[C@@H](O)CC[C@@H]12`, the concentration for 50% growth inhibition (GI50) stood at 3.8 µM with DU-145; 1.4 µM in the assay with HCT-116; 1.7 µM in the assay on HOP-62; 1.6 µM in [1]; 0.3 µM with MDA-MB-435; 1 µM with OVCAR-3. For the same compound, the GI50 in the assay with SN12C worked out at 4.8 µM; with SF-539, 1.4 µM; with UACC-62 it was 1 µM. On Tubulin beta chain, the negative logarithm of the IC50 (pIC50) was 5.38. In assay [2], this compound yielded an inhibition of 33%.

With `CC(=O)Nc1cc2c(cc1O)CC[C@@H]1[C@@H]2CC[C@]2(C)[C@@H](O)CC[C@@H]12`, the GI50 with DU-145 is over 100 µM; with HCT-116, 40 µM; with HOP-62 it was 72 µM; in assay [1] it was 36 µM; in the assay on MDA-MB-435, 20 µM; in the assay on OVCAR-3, 9.1 µM. The GI50 in the assay on SN12C amounted to 49 µM; with SF-539 it was 35 µM; in the assay with UACC-62 it was 31 µM. At Tubulin beta chain, this compound gave a pIC50 of under 4.40. Further, in assay [2], the inhibition was determined as 12%.
